For data set [1], the target named is Voltage-dependent T-type calcium channel subunit alpha-1H (Homo sapiens, UniProt O95180). Put plainly: Inhibition of human T type calcium channel Cav3.2 expressed in HEK-293T cells assessed as calcium influx by FRIPR assay. It is filed as cell-based.
The target of data set [2] is T1, Voltage-dependent N-type calcium channel subunit alpha-1B (Homo sapiens, UniProt Q00975). The data set can be described thus: Inhibition of human N type calcium channel Cav2.2 endogenously expressed in SH-SY5Y cells assessed as calcium influx by FRIPR assay. Type of data set: cell-based.
T1 sequence (Q00975 whole entry): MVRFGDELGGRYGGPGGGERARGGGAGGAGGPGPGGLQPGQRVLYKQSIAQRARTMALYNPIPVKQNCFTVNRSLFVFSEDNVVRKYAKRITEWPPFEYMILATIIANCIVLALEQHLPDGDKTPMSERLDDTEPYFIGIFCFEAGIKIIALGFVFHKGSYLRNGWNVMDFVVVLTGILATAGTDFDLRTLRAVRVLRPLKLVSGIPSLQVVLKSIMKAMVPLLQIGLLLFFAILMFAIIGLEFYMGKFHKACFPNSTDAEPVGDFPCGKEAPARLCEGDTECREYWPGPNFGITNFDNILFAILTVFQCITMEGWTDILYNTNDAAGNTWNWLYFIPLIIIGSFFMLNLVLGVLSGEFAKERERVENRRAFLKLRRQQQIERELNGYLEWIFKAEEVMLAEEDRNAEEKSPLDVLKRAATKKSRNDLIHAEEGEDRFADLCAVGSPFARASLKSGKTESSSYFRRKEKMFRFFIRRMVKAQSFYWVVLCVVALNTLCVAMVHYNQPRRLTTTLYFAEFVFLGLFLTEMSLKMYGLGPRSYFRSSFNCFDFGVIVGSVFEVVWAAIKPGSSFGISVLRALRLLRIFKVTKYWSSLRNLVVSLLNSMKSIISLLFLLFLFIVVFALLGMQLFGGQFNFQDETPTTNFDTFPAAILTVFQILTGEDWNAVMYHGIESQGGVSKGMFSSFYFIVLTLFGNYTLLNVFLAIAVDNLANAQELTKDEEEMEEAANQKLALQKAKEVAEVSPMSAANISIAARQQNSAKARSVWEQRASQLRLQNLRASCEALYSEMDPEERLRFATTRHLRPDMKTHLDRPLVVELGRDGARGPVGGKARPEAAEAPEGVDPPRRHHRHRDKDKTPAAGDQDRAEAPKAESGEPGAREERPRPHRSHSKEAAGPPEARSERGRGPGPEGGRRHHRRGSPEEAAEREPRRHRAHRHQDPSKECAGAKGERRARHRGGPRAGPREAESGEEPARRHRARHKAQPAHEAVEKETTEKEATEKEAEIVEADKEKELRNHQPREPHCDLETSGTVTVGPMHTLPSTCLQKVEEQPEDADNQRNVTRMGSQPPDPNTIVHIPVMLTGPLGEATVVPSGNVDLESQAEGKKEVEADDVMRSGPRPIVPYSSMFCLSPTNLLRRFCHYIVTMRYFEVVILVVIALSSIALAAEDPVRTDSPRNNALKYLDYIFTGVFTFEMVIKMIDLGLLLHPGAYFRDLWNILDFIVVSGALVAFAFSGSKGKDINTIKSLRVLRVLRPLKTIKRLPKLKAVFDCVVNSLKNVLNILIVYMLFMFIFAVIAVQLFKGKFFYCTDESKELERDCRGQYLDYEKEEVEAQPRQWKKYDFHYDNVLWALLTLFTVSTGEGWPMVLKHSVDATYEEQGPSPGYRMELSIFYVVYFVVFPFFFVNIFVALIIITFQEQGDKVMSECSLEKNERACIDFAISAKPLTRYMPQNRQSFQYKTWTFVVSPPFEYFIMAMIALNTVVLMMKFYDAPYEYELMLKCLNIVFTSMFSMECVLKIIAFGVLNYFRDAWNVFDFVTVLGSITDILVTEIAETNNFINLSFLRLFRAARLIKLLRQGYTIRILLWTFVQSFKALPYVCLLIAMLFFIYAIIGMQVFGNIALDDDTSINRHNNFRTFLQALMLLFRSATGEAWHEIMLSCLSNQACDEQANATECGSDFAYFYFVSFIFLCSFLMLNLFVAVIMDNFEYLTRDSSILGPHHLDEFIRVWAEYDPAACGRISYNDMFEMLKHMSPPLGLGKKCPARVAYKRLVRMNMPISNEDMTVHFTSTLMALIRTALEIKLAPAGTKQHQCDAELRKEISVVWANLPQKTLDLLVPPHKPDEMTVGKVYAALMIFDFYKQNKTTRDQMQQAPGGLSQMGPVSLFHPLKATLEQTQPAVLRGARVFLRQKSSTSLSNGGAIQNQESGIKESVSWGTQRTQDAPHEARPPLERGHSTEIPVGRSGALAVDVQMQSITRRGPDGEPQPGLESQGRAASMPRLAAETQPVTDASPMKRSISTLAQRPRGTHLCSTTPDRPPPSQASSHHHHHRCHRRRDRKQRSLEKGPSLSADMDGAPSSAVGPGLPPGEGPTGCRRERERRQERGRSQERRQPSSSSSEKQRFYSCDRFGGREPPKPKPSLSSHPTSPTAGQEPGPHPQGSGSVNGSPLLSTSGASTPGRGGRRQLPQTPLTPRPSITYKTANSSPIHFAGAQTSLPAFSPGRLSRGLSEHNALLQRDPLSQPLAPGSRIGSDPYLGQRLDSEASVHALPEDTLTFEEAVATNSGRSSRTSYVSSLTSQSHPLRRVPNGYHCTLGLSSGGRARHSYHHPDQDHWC
The nature of data set [3]: Stability of the compound in Sprague-Dawley rat plasma assessed as half-life measured by RP-HPLC. Type of data set: ADME, cell-free.
In data set [4] the target is T1, Voltage-dependent N-type calcium channel subunit alpha-1B. Put plainly: Inhibition of human Cav2.2 expressed in HEK293 cells by whole cell patch clamp electrophysiology method. Type of data set: cell-based. For orientation: Patch clamp records ionic current or voltage across a cell membrane.
The nature of data set [5]: Inhibition of human Cav3 expressed in HEK293 cells by whole cell patch clamp electrophysiology method. Type of data set: cell-based.

A value given as a limit tells only on which side of the number the result lay.

Sequence of Voltage-dependent T-type calcium channel subunit alpha-1H (O95180 whole entry): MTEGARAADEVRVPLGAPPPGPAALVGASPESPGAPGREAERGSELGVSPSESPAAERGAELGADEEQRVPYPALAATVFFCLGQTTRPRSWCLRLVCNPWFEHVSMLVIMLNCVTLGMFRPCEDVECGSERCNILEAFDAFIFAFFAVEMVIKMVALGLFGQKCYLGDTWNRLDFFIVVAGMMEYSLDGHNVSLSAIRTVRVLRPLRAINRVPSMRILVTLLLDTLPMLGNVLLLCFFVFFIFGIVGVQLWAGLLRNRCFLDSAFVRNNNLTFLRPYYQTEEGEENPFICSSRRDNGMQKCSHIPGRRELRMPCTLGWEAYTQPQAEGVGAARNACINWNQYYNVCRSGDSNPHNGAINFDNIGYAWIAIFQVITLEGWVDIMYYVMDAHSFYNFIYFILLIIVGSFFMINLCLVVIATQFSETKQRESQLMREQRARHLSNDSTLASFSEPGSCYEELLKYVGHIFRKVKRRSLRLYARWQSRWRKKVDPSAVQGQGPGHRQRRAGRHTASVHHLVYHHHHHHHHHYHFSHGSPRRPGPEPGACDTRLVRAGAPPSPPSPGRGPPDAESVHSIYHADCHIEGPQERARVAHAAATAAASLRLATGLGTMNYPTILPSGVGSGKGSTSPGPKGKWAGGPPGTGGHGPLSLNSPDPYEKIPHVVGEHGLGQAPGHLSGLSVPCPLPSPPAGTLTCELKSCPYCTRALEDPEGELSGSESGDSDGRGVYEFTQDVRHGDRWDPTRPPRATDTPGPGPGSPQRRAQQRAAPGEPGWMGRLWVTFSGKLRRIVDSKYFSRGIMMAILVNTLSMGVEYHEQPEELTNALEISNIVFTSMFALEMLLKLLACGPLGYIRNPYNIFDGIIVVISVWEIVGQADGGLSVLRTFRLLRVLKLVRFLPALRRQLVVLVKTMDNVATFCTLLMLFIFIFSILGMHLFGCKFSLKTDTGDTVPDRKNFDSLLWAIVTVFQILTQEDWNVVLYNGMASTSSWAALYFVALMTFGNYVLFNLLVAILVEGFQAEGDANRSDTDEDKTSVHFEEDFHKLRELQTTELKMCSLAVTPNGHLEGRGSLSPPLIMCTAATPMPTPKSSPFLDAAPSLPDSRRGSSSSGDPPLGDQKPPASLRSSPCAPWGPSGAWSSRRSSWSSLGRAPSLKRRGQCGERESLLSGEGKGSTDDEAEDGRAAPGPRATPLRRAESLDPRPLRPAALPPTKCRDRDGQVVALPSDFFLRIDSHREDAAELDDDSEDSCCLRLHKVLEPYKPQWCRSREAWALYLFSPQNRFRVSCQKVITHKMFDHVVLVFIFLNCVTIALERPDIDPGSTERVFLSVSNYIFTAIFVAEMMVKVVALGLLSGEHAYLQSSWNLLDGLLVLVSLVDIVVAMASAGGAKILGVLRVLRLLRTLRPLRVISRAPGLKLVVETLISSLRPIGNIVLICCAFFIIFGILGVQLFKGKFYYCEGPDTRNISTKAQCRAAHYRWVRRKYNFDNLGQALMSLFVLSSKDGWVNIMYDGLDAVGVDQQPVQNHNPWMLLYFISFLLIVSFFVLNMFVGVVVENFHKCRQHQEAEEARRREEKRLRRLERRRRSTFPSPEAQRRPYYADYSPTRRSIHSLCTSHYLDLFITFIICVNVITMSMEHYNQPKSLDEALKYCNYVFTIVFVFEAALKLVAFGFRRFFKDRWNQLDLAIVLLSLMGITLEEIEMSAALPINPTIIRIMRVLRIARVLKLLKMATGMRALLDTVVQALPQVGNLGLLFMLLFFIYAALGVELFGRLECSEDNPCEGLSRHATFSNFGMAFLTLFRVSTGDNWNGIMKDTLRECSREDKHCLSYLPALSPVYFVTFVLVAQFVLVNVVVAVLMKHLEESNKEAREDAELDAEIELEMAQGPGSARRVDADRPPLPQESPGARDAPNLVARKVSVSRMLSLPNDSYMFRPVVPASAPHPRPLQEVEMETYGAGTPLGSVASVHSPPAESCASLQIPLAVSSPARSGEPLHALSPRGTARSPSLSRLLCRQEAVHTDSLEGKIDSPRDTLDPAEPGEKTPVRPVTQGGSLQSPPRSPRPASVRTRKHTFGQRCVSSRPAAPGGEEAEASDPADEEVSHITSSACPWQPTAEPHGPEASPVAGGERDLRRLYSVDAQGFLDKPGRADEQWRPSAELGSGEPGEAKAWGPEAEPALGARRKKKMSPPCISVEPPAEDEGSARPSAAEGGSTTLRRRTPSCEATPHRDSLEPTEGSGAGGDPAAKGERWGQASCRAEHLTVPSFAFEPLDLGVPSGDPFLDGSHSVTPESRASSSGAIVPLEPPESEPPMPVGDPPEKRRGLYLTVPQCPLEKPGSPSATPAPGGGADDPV

By IC50 is commonly meant the concentration that inhibits the measured activity by half. In the case of `O=C(c1ccc(OCCCN2CCOCC2)cc1)N1c2ccccc2Oc2ccccc21`, in data set [1], the IC50 stood at 133 µM.

On to `O=C(c1ccc(OCCCN2CCOCC2)cc1)N1c2ccccc2CCc2ccccc21`, for which the figures for the IC50 in data set [2] and in data set [1] were 78 µM and 80 µM, respectively.

With `O=C(c1ccc(OCCCN2CCCC2)cc1)N1c2ccccc2C=Cc2ccccc21`, the IC50 worked out at 107 µM in data set [2] and 113 µM in data set [1].

What is called half-life is the time needed for the level to fall by half in the phase considered. Take `CN(C)CCCOc1ccc(C(=O)N2c3ccccc3C=Cc3ccccc32)cc1`: the half-life in data set [3] was > 60 h.

Consider `O=C(c1ccc(OCCCN2CCCC2)cc1)N1c2ccccc2CCc2ccccc21`, for which the results for the IC50 in data set [2] and in data set [1] were 98 µM and 110 µM, respectively.

For the molecule `O=C(c1ccc(OCCCN2CCCC2)cc1)N1c2ccccc2Oc2ccccc21`, the IC50 in data set [1] is 49 µM.

As to `NC(N)=NCCCOc1ccc(C(=O)Nc2ccccc2Oc2ccc(F)cc2)cc1`, the figures for the IC50 in data set [2], in data set [4] and in data set [5] were 185 µM, 34 µM and 2 µM, respectively.

As to `COCCOC(=O)C1=C(C)NC(C)=C(C(=O)OC/C=C/c2ccccc2)C1c1cccc([N+](=O)[O-])c1` (configuration not stated) [CILNIDIPINE], the IC50 in data set [2] stood at 26 µM; in data set [1] it was 24 µM.

For the molecule `CN(C)CCCOc1ccc(C(=O)N2c3ccccc3CCc3ccccc32)cc1`, the half-life in data set [3] is > 60 h.

Consider `NC(N)=NCCCOc1ccc(C(=O)N2c3ccccc3Oc3ccccc32)cc1`, for which the IC50 in data set [1] was determined as 164 µM.

As for `O=C(c1ccc(OCCCN2CCOCC2)cc1)N1c2ccccc2C=Cc2ccccc21`, the IC50 in data set [2] came out at 259 µM; in data set [1], 193 µM.

For the molecule `Cc1cccc(C)c1Oc1ccccc1NC(=O)c1ccc(OCCCN(C)C)cc1`, the IC50 came out at 62 µM in data set [2] and 55 µM in data set [1].

As for `CN(C)CCCOc1ccc(C(=O)Nc2ccccc2Oc2ccccc2)cc1`, the IC50 was determined as 49 µM in data set [2] and 19 µM in data set [1].

These data come from ChEMBL document CHEMBL4725377, “The neuronal calcium ion channel activity of constrained analogues of MONIRO-1” (Bioorg Med Chem, 2020).
